Experimental data published in ChEMBL document CHEMBL1142996 (J Med Chem, 2007).
Non-standard residues stand in square brackets, D forms with d. Residues, ends and D or L forms follow the SMILES beside them. Phe(4-NH2) = Nc1ccc(C[C@H](N)C(=O)O)cc1

Biological target: T1, Angiotensin II receptor (AT-1) type-1 (Rattus norvegicus, UniProt P29089+P25095)
T1 sequence (P29089 whole entry): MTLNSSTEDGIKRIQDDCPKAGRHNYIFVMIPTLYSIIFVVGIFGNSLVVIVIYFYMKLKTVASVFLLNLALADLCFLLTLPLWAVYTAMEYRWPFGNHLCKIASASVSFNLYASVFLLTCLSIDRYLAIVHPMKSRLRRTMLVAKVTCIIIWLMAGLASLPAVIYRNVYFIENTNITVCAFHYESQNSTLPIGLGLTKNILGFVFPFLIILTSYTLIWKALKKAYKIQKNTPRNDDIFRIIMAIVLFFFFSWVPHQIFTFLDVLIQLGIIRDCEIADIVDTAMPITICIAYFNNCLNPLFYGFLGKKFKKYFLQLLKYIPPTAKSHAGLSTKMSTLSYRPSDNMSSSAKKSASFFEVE
T1 sequence (P25095 whole entry): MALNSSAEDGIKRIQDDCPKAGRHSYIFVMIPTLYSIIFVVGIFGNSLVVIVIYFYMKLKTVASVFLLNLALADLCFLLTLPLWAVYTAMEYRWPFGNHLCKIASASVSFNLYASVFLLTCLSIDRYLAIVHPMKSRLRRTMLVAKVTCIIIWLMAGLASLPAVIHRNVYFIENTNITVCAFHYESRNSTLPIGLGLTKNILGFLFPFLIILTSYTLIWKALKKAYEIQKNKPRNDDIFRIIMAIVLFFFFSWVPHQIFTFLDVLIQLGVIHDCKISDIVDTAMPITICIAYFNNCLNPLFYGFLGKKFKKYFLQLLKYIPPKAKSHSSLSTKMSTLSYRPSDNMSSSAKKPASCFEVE
Test: Displacement of [125I]Ang2 from AT1 receptor in rat liver membrane
Format: cell membranes

In the case of `O=C(O)[C@H](Cc1ccccc1)NC(=O)[C@@H]1CCCN1C(=O)c1cccc(Cc2cnc[nH]2)c1`, the Ki was over 10 µM.

For `O=C(O)[C@H](Cc1ccccc1)NC(=O)[C@@H]1CCCN1C(=O)c1cccc(Cn2ccnc2)c1`, the Ki was over 10 µM.

`O=C(N[C@@H](Cc1ccccc1)C(=O)O)c1cccc(Cc2cnc[nH]2)c1` was tested, and the Ki was over 10 µM.

`CC[C@@H](C)[C@H](NC(=O)[C@@H]1CCCN1C(=O)c1cccc(Cn2ccnc2)c1)C(=O)O` showed a Ki of over 10 µM.

For `CC(=O)N[C@@H](Cc1cnc[nH]1)C(=O)N1CCC[C@H]1C(=O)N[C@@H](Cc1ccccc1)C(=O)O` (Ac-His-Pro-Phe-OH), the Ki was over 10 µM.

`O=C(N[C@@H](Cc1ccccc1)C(=O)O)c1cccc(Cn2ccnc2)c1` gave a Ki of over 10 µM.

`N[C@@H](Cc1cnc[nH]1)C(=O)N1CCC[C@H]1C(=O)N[C@@H](Cc1ccccc1)C(=O)O` (H-His-Pro-Phe-OH) showed a Ki of 1.598 µM.

Molecule `CC[C@@H](C)[C@H](NC(=O)[C@@H]1CCCN1C(=O)c1cccc(Cc2cnc[nH]2)c1)C(=O)O` has a Ki of over 10 µM.

Work on `CC[C@H](C)[C@H](NC(=O)[C@@H]1CCCN1C(=O)[C@H](Cc1cnc[nH]1)NC(C)=O)C(=O)O` (Ac-His-Pro-Ile-OH) yielded a Ki of over 10 µM.

In the case of `CC[C@H](C)[C@H](NC(=O)[C@H](Cc1ccc(O)cc1)NC(=O)[C@@H](NC(=O)[C@H](CCCNC(=N)N)NC(=O)[C@@H](N)CC(=O)O)C(C)C)C(=O)N[C@@H](Cc1ccc(N)cc1)C(=O)N1CCC[C@H]1C(=O)N[C@@H](Cc1ccccc1)C(=O)O` (H-DRVYI[Phe(4-NH2)]PF-OH), the Ki was over 10 µM.

Work on `CC[C@@H](C)[C@H](NC(=O)c1cccc(Cn2ccnc2)c1)C(=O)O` yielded a Ki of over 10 µM.

For `CC[C@H](C)[C@H](NC(=O)[C@@H]1CCCN1C(=O)[C@@H](N)Cc1cnc[nH]1)C(=O)O` (H-His-Pro-Ile-OH), the Ki was over 10 µM.

`CC[C@@H](C)[C@H](NC(=O)c1cccc(Cc2cnc[nH]2)c1)C(=O)O` was tested, and the Ki was over 10 µM.
